Data published in ChEMBL document CHEMBL1201862, “PubChem BioAssay data set” (2004).
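Following 48 hours of exposure in 96-well plates, responses at five concentrations were used to interpolate endpoints linearly. The concentration for 50% growth inhibition is given as GI50.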 Active and inactive are the calls of the source. Cut-off read from the data, not from the text of the source: active = GI50 up to about 1.1 µM and inactive = higher.

Assays:
Experiment in all cases: inhibition of tumour cell growth, NCI panel, 48 h
[1] = system: SW-620
[2] = system: EKVX
[3] = system: ACHN
[4] = system: CCRF-CEM
[5] = system: IGROV-1
[6] = system: HCC 2998
[7] = system: KM12
[8] = system: SF-268
[9] = system: RPMI-8226
[10] = system: HCT-15
[11] = system: NCI-H23
[12] = system: NCI-H522
[13] = system: UACC-257
[14] = system: SK-MEL-28
[15] = system: CAKI-1
[16] = system: SNB-75
[17] = system: UACC-62
[18] = system: HOP-92

Compound | GI50 [1] | GI50 [2] | GI50 [3] | GI50 [4] | GI50 [5] | GI50 [6] | GI50 [7] | GI50 [8] | GI50 [9] | GI50 [10] | GI50 [11] | GI50 [12] | GI50 [13] | GI50 [14] | GI50 [15] | GI50 [16] | GI50 [17] | GI50 [18]
Cc1cccc(-n2c(N)c(-c3nc4ccccc4[nH]3)sc2=S)c1 | 31.4 µM (inactive) | 48.4 µM (inactive) | 23.9 µM (inactive) | 32.2 µM (inactive) | 30.8 µM (inactive) | > 10 µM (inactive) | 22 µM (inactive) | 76.6 µM (inactive) | 20.7 µM (inactive) | 20.7 µM | 49.8 µM (inactive) | 25.6 µM (inactive) | 28.6 µM (inactive) | 37 µM (inactive) | 47.4 µM (inactive) | 50 µM (inactive) | 18.4 µM (inactive) | 
CC12CC(=O)NN=C1c1ccccc1C2 (centres undefined) | > 100 µM (inactive) | 98.2 µM (inactive) | > 100 µM (inactive) | > 100 µM (inactive) | > 100 µM (inactive) | > 100 µM (inactive) | > 100 µM (inactive) | > 100 µM (inactive) | > 100 µM (inactive) | > 100 µM | > 100 µM (inactive) | > 100 µM (inactive) | > 100 µM (inactive) | > 100 µM (inactive) | > 100 µM (inactive) | > 100 µM (inactive) | > 100 µM (inactive) | 
N=C(N)NS(=O)(=O)c1ccc(NC(=O)c2cccc3cc4ccccc4nc23)cc1 | 66.8 µM (inactive) | > 100 µM (inactive) | 93.8 µM (inactive) | 6.56 µM (inactive) | > 100 µM (inactive) |  | 30.8 µM (inactive) | 88.5 µM (inactive) | > 100 µM (inactive) | > 100 µM | > 100 µM (inactive) | 13.5 µM (inactive) | > 100 µM (inactive) | > 100 µM (inactive) | > 100 µM (inactive) | 95.1 µM (inactive) | > 100 µM (inactive) | 
O/N=C1/C(=C/c2ccc(OCc3ccccc3)cc2)CCCC1C(NO)c1ccc(OCc2ccccc2)cc1 (centres undefined) | 17.4 µM (inactive) | 5.43 µM (inactive) | 17 µM (inactive) | 11.1 µM (inactive) | > 100 µM (inactive) | 46 µM (inactive) | 24.2 µM (inactive) |  |  | 6.24 µM | 12.7 µM (inactive) | 6.27 µM (inactive) | 10 µM (inactive) | 48.4 µM (inactive) | 5.87 µM (inactive) | 34 µM (inactive) |  | 11.1 µM (inactive)
C/C=N\N1C(=O)c2ccccc2C1=O | > 100 µM (inactive) | > 100 µM (inactive) | > 100 µM (inactive) | > 100 µM (inactive) | > 100 µM (inactive) | > 100 µM (inactive) | > 100 µM (inactive) | > 100 µM (inactive) | > 100 µM (inactive) | > 100 µM | > 100 µM (inactive) |  | > 100 µM (inactive) | > 100 µM (inactive) | > 100 µM (inactive) | > 100 µM (inactive) | > 100 µM (inactive) | > 100 µM (inactive)
C=C[Si](C)(C)COC(=O)/C(C#N)=C/C=C/c1ccccc1 | 76 µM (inactive) | > 100 µM (inactive) | > 100 µM (inactive) | 32.3 µM (inactive) | > 100 µM (inactive) | > 100 µM (inactive) | > 100 µM (inactive) | > 100 µM (inactive) | 37.2 µM (inactive) | 78.2 µM | > 100 µM (inactive) | 46.3 µM (inactive) | > 100 µM (inactive) | > 100 µM (inactive) |  | 34.6 µM (inactive) | 88.7 µM (inactive) | > 100 µM (inactive)
CC1OC(OC2C(CO)OC(O[C@H]3CC[C@@]4(C)C(=CC[C@H]5[C@@H]6C[C@@H]7O[C@]8(CC[C@@H](C)CN8)[C@@H](C)[C@@H]7[C@@]6(C)CC[C@@H]54)C3)C(O)C2O)C(O)C(O)C1O (some centres undefined) | > 100 µM (inactive) | 76 µM (inactive) | > 100 µM (inactive) | > 100 µM (inactive) | > 100 µM (inactive) |  | > 100 µM (inactive) | > 100 µM (inactive) | > 100 µM (inactive) | > 100 µM | > 100 µM (inactive) | 70.6 µM (inactive) | > 100 µM (inactive) | 31.8 µM (inactive) | > 100 µM (inactive) | 42.1 µM (inactive) | > 100 µM (inactive) | 31.7 µM (inactive)
COc1ccc([N+]2=NC(c3ccc([N+](=O)[O-])cc3)=NN(c3ccccc3)C2)cc1 | 68.4 µM (inactive) | 44.4 µM (inactive) | 42.5 µM (inactive) | 24.9 µM (inactive) | 39 µM (inactive) | > 100 µM (inactive) |  | 97.7 µM (inactive) | 24.7 µM (inactive) | 24.8 µM | 55.8 µM (inactive) | 2.69 µM (inactive) | 30.1 µM (inactive) | 70.8 µM (inactive) |  |  |  | 
CN/C(=N/C#N)NCc1ccccc1 | > 100 µM (inactive) | 0.0512 µM (active) | > 100 µM (inactive) | > 100 µM (inactive) | > 100 µM (inactive) | 27.4 µM (inactive) | > 100 µM (inactive) | > 100 µM (inactive) | > 100 µM (inactive) | > 100 µM | > 100 µM (inactive) | > 100 µM (inactive) | > 100 µM (inactive) | > 100 µM (inactive) | > 100 µM (inactive) | > 100 µM (inactive) |  | > 100 µM (inactive)
COC(=O)C(=NNc1ccccc1[N+](=O)[O-])C(=O)OC | > 100 µM (inactive) | > 100 µM (inactive) | > 100 µM (inactive) | > 100 µM (inactive) | > 100 µM (inactive) | > 100 µM (inactive) | > 100 µM (inactive) | > 100 µM (inactive) |  |  | > 100 µM (inactive) | > 100 µM (inactive) | > 100 µM (inactive) | > 100 µM (inactive) | > 100 µM (inactive) |  |  | 24.1 µM (inactive)
O=C(O)[C@H](NS(=O)(=O)c1ccc(F)cc1)c1ccccc1 | > 100 µM (inactive) | > 100 µM (inactive) | > 100 µM (inactive) | > 100 µM (inactive) | > 100 µM (inactive) | > 100 µM (inactive) |  | > 100 µM (inactive) | > 100 µM (inactive) | > 100 µM | > 100 µM (inactive) | > 100 µM (inactive) | > 100 µM (inactive) | > 100 µM (inactive) | > 100 µM (inactive) | > 100 µM (inactive) | > 100 µM (inactive) | 
CC(C)=CC(=O)CC(=O)C(=O)Nc1ccc(C)c(C)c1 | > 100 µM (inactive) | > 100 µM (inactive) | > 100 µM (inactive) | > 100 µM (inactive) | > 100 µM (inactive) |  | > 100 µM (inactive) | > 100 µM (inactive) | > 100 µM (inactive) | > 100 µM | > 100 µM (inactive) | > 100 µM (inactive) | > 100 µM (inactive) | > 100 µM (inactive) | > 100 µM (inactive) | > 100 µM (inactive) | > 100 µM (inactive) | > 100 µM (inactive)
COc1cc2cccc(/N=C\c3cccc(OC)c3OC(C)C)c2cc1OC | 21 µM (inactive) | 52 µM (inactive) | 36.6 µM (inactive) | 21.2 µM (inactive) | 24 µM (inactive) | 35.9 µM (inactive) | 19 µM (inactive) | 24.4 µM (inactive) | 13.2 µM (inactive) |  | 23.4 µM (inactive) | 17.9 µM (inactive) | 20.8 µM (inactive) | 24.3 µM (inactive) | 24 µM (inactive) | 21.7 µM (inactive) | 19.6 µM (inactive) | 
O=[N+]([O-])c1ccc(C2=Nn3c(nnc3-c3ccccc3)SC2)o1 | 18 µM (inactive) | 46.8 µM (inactive) | 19.4 µM (inactive) | 3.6 µM (inactive) | 21.8 µM (inactive) | 18.9 µM (inactive) | 18 µM (inactive) | 20.2 µM (inactive) | 5.81 µM (inactive) | 16.1 µM | 20.6 µM (inactive) |  | 20 µM (inactive) | 29.2 µM (inactive) | 19.9 µM (inactive) | 20.4 µM (inactive) | 19.5 µM (inactive) | 13.2 µM (inactive)
Cc1cc2nc3c(=O)[nH]c(=O)nc-3n(CC(O)C(O)C(O)CO)c2cc1N (centres undefined) | > 100 µM (inactive) | > 100 µM (inactive) | > 100 µM (inactive) | > 100 µM (inactive) | > 100 µM (inactive) | > 100 µM (inactive) | > 100 µM (inactive) |  | > 100 µM (inactive) | > 100 µM | > 100 µM (inactive) |  |  | > 100 µM (inactive) |  | > 100 µM (inactive) | > 100 µM (inactive) | > 100 µM (inactive)
C[N+]1(C)C[C@@H](O)C[C@@H]1C(=O)[O-] [BETONICINE] | > 100 µM (inactive) | > 100 µM (inactive) | > 100 µM (inactive) | > 100 µM (inactive) | > 100 µM (inactive) | > 100 µM (inactive) | > 100 µM (inactive) | > 100 µM (inactive) | > 100 µM (inactive) | > 100 µM | > 100 µM (inactive) | > 100 µM (inactive) | > 100 µM (inactive) | > 100 µM (inactive) |  | > 100 µM (inactive) | > 100 µM (inactive) | > 100 µM (inactive)
NNC(=O)N/N=C(/CC1(O)C(=O)Nc2ccc(Br)cc21)c1ccccc1 (centres undefined) | 50 µM (inactive) | 22.7 µM (inactive) | 24.3 µM (inactive) | 27.1 µM (inactive) | 41.1 µM (inactive) |  | 25.7 µM (inactive) | 21.5 µM (inactive) | 48.4 µM (inactive) | 61.1 µM | 29 µM (inactive) | 18.8 µM (inactive) | 77.3 µM (inactive) | 28.2 µM (inactive) | 30.3 µM (inactive) | 9.27 µM (inactive) | 19.8 µM (inactive) | 18.1 µM (inactive)
